Earlier results, collected in PubChem BioAssay AID1259409 (Chemical Carcinogenesis Research Information System (CCRIS), 2018).

Test system: rodent chemically induced tumor inhibition, incidence and multiplicity
Assay: CCRIS tumor inhibitor studies
Conditions: Carcinogen: DIETHYLNITROSAMINE, 55-18-5, 684-93-5, N-BUTYL-N-(4-HYDROXYBUTYL)NITROSAMINE, 3817-11-6, Carcinogen: DIETHYLNITROSAMINE, 55-18-5, 684-93-5, N-BUTYL-N-(4-HYDROXYBUTYL)NITROSAMINE, 3817-11-6, Dose [Inhibitor]: 0, Route [Inhibitor]: ORAL, Species: RAT

Q: For `CCCCCCCCCCCCC(=O)COC1=C(O)C(=O)O[C@@H]1[C@@H](O)CO`, which “tumour outcome (control, treated, inhibition, significance)” value (N-METHYL-N-NITROSOUREA, DIMETHY, N-METHYL-N-NITROSOUREA, DIMETHY, 1% IN THE DIET FOR 24 WK BEGINNING 1 DAY POST CARCINOGEN TREATMENT (STUDY DURATION: 28 WK), Strain/Sex: F344/MALE, Target Tissue: Type of Lesion: URINARY BLADDER: PAPILLOMA, Dose [Carcinogen]: 100 MG/KG BW DEN ONCE FOLLOWED BY 20 MG/KG BW MNU 4 TIMES AND 0.05% BBN IN DRINKING WATER DURING FIRST 2 WK THEN 40 MG/K, Promoter: NONE USED) is on record?
A: 7%, 0%, 100%, not significant

Q: What about the “tumour outcome (control, treated, inhibition, significance)” value (N-METHYL-N-NITROSOUREA, DIMETHY, N-METHYL-N-NITROSOUREA, DIMETHY, 1% IN THE DIET FOR 30 D BEGINNING 1 D PRIOR TO CARCINOGEN TREATMENT (STUDY DURATION: 28 WK), Strain/Sex: F344/MALE, Target Tissue: Type of Lesion: THYROID: CARCINOMA, Dose [Carcinogen]: 100 MG/KG BW DEN ONCE FOLLOWED BY 20 MG/KG BW MNU 4 TIMES AND 0.05% BBN IN DRINKING WATER DURING FIRST 2 WK THEN 40 MG/K, Promoter: NONE USED) of the same compound?
A: 7%, 0%, 100%, not significant

Q: And the “tumour outcome (control, treated, inhibition, significance)” value (N-METHYL-N-NITROSOUREA, DIMETHY, N-METHYL-N-NITROSOUREA, DIMETHY, 1% IN THE DIET FOR 30 D BEGINNING 1 DAY PRIOR TO CARCINOGEN TREATMENT (STUDY DURATION: 28 WK), Strain/Sex: F344/ MALE, Target Tissue: Type of Lesion: URINARY BLADDER: PAPILLOMA, Dose [Carcinogen]: 100 MG/KG BW DEN ONCE FOLLOWED BY 20 MG/KG BW MNU 4 TIMES AND 0.05% BBN IN DRINKING WATER DURING FIRST 2 WK THEN 40 MG/K, Promoter: NONE USED)?
A: 7%, 0%, 100%, not significant

Q: What about the “tumour outcome (control, treated, inhibition, significance)” value (N-METHYL-N-NITROSOUREA, DIMETHY, N-METHYL-N-NITROSOUREA, DIMETHY, 1% IN THE DIET FOR 30 D BEGINNING 1 DAY PRIOR TO CARCINOGEN TREATMENT (STUDY DURATION: 28 WK), Strain/Sex: F344/MALE, Target Tissue: Type of Lesion: LARGE INTESTINE: CARCINOMA, Dose [Carcinogen]: 100 MG/KG BW DEN ONCE FOLLOWED BY 20 MG/KG BW MNU 4 TIMES AND 0.05% BBN IN DRINKING WATER DURING FIRST 2 WK THEN 40 MG/K, Promoter: NONE USED) of the same compound?
A: 7%, 7%, 0%, not significant

Q: And the “tumour outcome (control, treated, inhibition, significance)” value (N-METHYL-N-NITROSOUREA, DIMETHY, N-METHYL-N-NITROSOUREA, DIMETHY, 1% IN THE DIET FOR 30 D BEGINNING 1 DAY PRIOR TO CARCINOGEN TREATMENT (STUDY DURATION: 28 WK), Strain/Sex: F344/MALE, Target Tissue: Type of Lesion: SMALL INTESTINE: ADENOMA, Dose [Carcinogen]: 100 MG/KG BW DEN ONCE FOLLOWED BY 20 MG/KG BW MNU 4 TIMES AND 0.05% BBN IN DRINKING WATER DURING FIRST 2 WK THEN 40 MG/K, Promoter: NONE USED)?
A: 33%, 21%, 36%, not significant

Q: What about the “tumour outcome (control, treated, inhibition, significance)” value (N-METHYL-N-NITROSOUREA, DIMETHY, N-METHYL-N-NITROSOUREA, DIMETHY, 1% IN THE DIET FOR 30 DAYS BEGINNING 1 D PRIOR TO CARCINOGEN TREATMENT (STUDY DURATION: 28 WK), Strain/Sex: F344/MALE, Target Tissue: Type of Lesion: SMALL INTESTINE: CARCINOMA, Dose [Carcinogen]: 100 MG/KG BW DEN ONCE FOLLOWED BY 20 MG/KG BW MNU 4 TIMES AND 0.05% BBN IN DRINKING WATER DURING FIRST 2 WK THEN 40 MG/K, Promoter: NONE USED) of the same compound?
A: 7%, 14%, -100%, not significant

Q: And the “tumour outcome (control, treated, inhibition, significance)” value (N-METHYL-N-NITROSOUREA, DIMETHY, N-METHYL-N-NITROSOUREA, DIMETHY, 1% IN THE DIET FOR 30 DAYS BEGINNING 1 DAY PRIOR TO CARCINOGEN TREATMENT (STUDY DURATION: 28 WK), Strain/Sex: F344/MALE, Target Tissue: Type of Lesion: URINARY BLADDER: CARCINOMA)?
A: 7%, 0%, 100%, not significant

Q: And the “tumour outcome (control, treated, inhibition, significance)” value (N-METHYL-NITROSOUREA, DIMETHYLH, N-METHYL-NITROSOUREA, DIMETHYLH, 1% IN THE DIET FOR 30 DAYS BEGINNING 1 DAY PRIOR TO CARCINOGEN TREATMENT (STUDY DURATION: 28 WK), Strain/Sex: F344/MALE, Target Tissue: Type of Lesion: LARGE INTESTINE: ADENOMA, Dose [Carcinogen]: 100 MG/KG BW DEN ONCE FOLLOWED BY 20 MG/KG BW MNU 4 TIMES AND 0.05% BBN IN DRINKING WATER DURING FIRST 2 WK THEN 40 MG/K, Promoter: NONE USED)?
A: 27%, 29%, -7%, not significant
